Data taken from PMC3527734, “Peripheral injections of melanin-concentrating hormone receptor 1 antagonist S38151 decrease food intake and body weight in rodent obesity models” (Frontiers in Endocrinology, 2012).
Where a SMILES comes first, the peptide text is derived from it.

Legend:
Format in all cases: in vivo, rat
[1] = test system: Zucker fa/fa rats; experiment: daily i.c.v. administration, feeding, drinking, body weight and motility
Source text: (§1) Wistar and Zucker fa/fa rats were anesthetized with Forène (Abbott Laboratories, Queenborough, UK), and a stainless steel guide cannula (Plastic Products Co, Roanoke, Va, USA) was stereotaxically implanted into the right lateral ventricle at the following coordinates relative to the bregma: AP −0.8 mm, L = −1.2 mm, and V = −3.5 mm. After a 7-day recovery period, during which the animals were handled each day to minimize non-specific stress, they were lightly anesthetized with Forène. Human/mouse/rat MCH (1 μg in a volume of 2.5 μ L, Bachem, Voisins-le-Bretonneux, France) or an equivalent volume of artificial cerebrospinal fluid (CSF) was then injected through the intraventricular cannula. Immediately after injection, the animals quickly recovered and were returned to their home cages. Only those animals responding within 2 h with a robust increase in food intake, indicating correct cannula placement, were used in the experiments described below. Two days after MCH injection, the rats were randomly assigned to different groups and studied in one of the following protocols.
The TSE Drinking and Feeding Monitor system was used to analyze ingestive behavior in these experiments (TSE Technical & Scientific Equipment GmbH, Bad Homburg, Germany). The rats' motility was also determined in these experiments using the MoTil® system (TSE). Zucker fa/fa rats were placed individually into plastic cages to which were attached both a feeding and a drinking sensor. The animals were habituated to normal food (A03 UAR, Orge, France) and water for at least 2 weeks before experimentation. […] The injections were repeated daily for a total of 7 days. After 7 days, the injections were stopped and each measured parameter was followed during a 5-day washout period.
Figure 4 The effects of repeated daily central administration of S38151 on food intake, water intake, body weight, and motility in Zucker fa/fa rats. One hour prior the beginning of the dark phase, different doses of S38151 (5, 10, or 20 nmol/kg) or vehicle were injected (i.c.v.) once daily for 7 days, followed by a washout period of 5 days. […] Repeated measures Two-Way ANOVA (treatment × time) was performed with a repeated measure of the factor “time.” Significant treatment and interaction effects are shown on the graph. ^+P < 0.05; ^++P < 0.01; ^+++P < 0.001.

[2] = test system: Wistar rats; experiment: NEI-MCH-induced food intake after acute i.c.v. injection
Source text: as §1
Wistar rats were habituated for at least 2 weeks before experiment to a diet of food pellets (6 mm diameter) of the following composition: 67.5% food flour, 26.5% sucrose, 5% gum tragacanth, and 1.25% magnesium stearate (A03 UAR, Orge, France). The food pellets were present in a metal food hopper attached to the inside of each cage. At 09:00 on the day of study, the animals were lightly anesthetized with Forene® (Abbott, France). Thereafter, rats were injected intra-cerebroventricular (i.c.v.) with vehicle (artificial CSF) or with S38151 [0.5, 5, 10, 20, 30, or 50 nmol/kg ([…], 14, 28, 42, or 70 μg/kg, respectively)] in a volume of 2.5 μL, 20 min prior to the injection of human/rat NEI-MCH [5 nmol/kg (18.7 μg/kg) in a volume of 2.5 μL].
Food intake was measured at different times after peptide injection. Food spillage was carefully quantified during each time period, and intake measurements were corrected for this loss. At the end of the experiments, the animals were euthanized and the positions of the cannulae were assessed by the injection of 100 μ L Evans blue dye (2 mg/mL) followed by the visual examination of brain slices. Only data obtained from animals with correctly positioned cannulae were included in the final data analysis.
Figure 3 The effect of S38151 on NEI-MCH-induced food intake in Wistar rats after acute central administration. Satiated rats were injected (i.c.v.) at the beginning of the light phase with 5 μg NEI-MCH, 5 μg NEI-MCH + differing doses of S38151 (0.5–50 nmol/kg), or an equivalent volume of artificial cereblospinal fluid vehicle (5 μL). Cumulative food intake was measured at 1, 2, 4, 6, and 24 h post-injection.

[3] = test system: Zucker fa/fa rats; experiment: acute i.p. administration, food intake in fasted rats; conditions: S38151 30 mg/kg i.p.
Method: Zucker fa/fa rats were habituated in the same conditions as Wistar rats (described in section “Acute Central Peptide Administration and Feeding Studies in Wistar Rats”). At 09:00 on the day of study, after fasting for 24 h, either vehicle (normal saline) or S38151 [30 mg/kg (20 μmol/kg)] was administered intraperitoneally (i.p.).
Figure 6 The effect of S38151 on food intake in Zucker fa/fa rats after acute peripheral administration. Rats were fasted for 24 h, and then injected (i.p.) at the beginning of the light phase with vehicle (normal saline) or 30 mg/kg S38151. Cumulative food intake was measured 1, 2, 4, 6, and 24 h after injection. Results are expressed as mean ± SEM (n = 16 rats per group).

[4] = test system: Zucker fa/fa rats; experiment: conditioned taste aversion; conditions: test days 4, 7, 11, 14 versus control; lithium chloride 75 mg/kg i.p.; S38151 20 nmol/kg i.c.v.; n = 10-11

Compound: CSCC[C@@H]1NC(=O)[C@@H](NC(=O)c2ccc(NC(=N)N)cc2)CSSC[C@@H](C(=O)N[C@@H](Cc2c[nH]c3ccccc23)C(=O)O)NC(=O)[C@@H]2CCCN2C(=O)[C@H](CCCNC(=N)N)NC(=O)[C@H](Cc2ccc(O)cc2)NC(=O)[C@H](C(C)C)NC(=O)[C@H](CCCNC(=N)N)NC(=O)[C@H](CC(C)C)NC1=O [S38151, p-guanidinobenzoyl-(Des-Gly10)-MCH (7–17)] (HELM PEPTIDE1{[N=C(N)Nc1ccc(C(=O)[*:2])cc1].C.M.L.R.V.Y.R.P.C.W}$PEPTIDE1,PEPTIDE1,2:R3-10:R3$$$V2.0; C-terminus assumed)
- body weight gain during the washout period ([1]; 5-day washout after 10 nmol/kg S38151 i.c.v. for 7 days): remained significantly less than control values
- motility during the washout period ([1]; 5-day washout after 20 nmol/kg S38151 i.c.v. for 7 days): remained significantly elevated
- food intake ([1]; S38151 5, 10, 20 nmol/kg i.c.v. daily for 7 days, significant only at 20 nmol/kg, n = 8): dose-dependent inhibition
- motility ([1]; S38151 10 and 20 nmol/kg i.c.v. daily for 7 days): significantly increased
- body weight gain ([1]; S38151 10 and 20 nmol/kg i.c.v. daily for 7 days, compared with control rats): dose-dependent reduction
- water intake ([1]; S38151 i.c.v. daily for 7 days, all injected doses except the 5 nmol dose): significantly inhibited
- food intake during the entire 24-h period versus control group ([2]; NEI-MCH alone or any combination of NEI-MCH and S38151, i.c.v.): not significantly altered
- inhibition of NEI-MCH-induced food intake ([2]; S38151 50 nmol/kg i.c.v.): Nearly complete inhibition
- inhibition of the increase in food intake produced by NEI-MCH ([2]; S38151 0.5-50 nmol/kg i.c.v. 20 min before NEI-MCH, first and second hours): statistically significant dose-related inhibition
- food intake, first hour ([3]; 24-h fasted Zucker fa/fa rats, control 3.6 ± 0.4 g, mean ± SEM, n = 16): 0.09 ± 0.06 g
- inhibition of food consumption within 1 h ([3]; Zucker fa/fa rats): complete inhibition
- decrease in food intake up to 24 h after drug administration ([3]; cumulative food intake versus control): maintained statistical significance
- 0.2% saccharine consumption [4]: did not affect
